Data set [1] has as its system plasma membrane of several mammalian cell types. Particulars: energy-independent manner; cited from earlier work.
For data set [2], the system named is Rats with permanent left coronary artery occlusion. Nature of the data set: Heart weight and post-mortem LV volume (Example 2). The format is in vivo, rat. The settings on record: 6 weeks after treatment. On the procedure:
(§1) Rats were anesthetized, ventilated, and a thoracotomy performed in the left 4th intercostal space. Temperature was maintained at 36° C. by placing the rats on a heating pad during the procedure. The pericardium was excised and the proximal left coronary artery isolated and permanently occluded with a suture. Coronary artery occlusion was confirmed by cyanosis and akinesis of the anterior wall of the ventricle. The chest was closed, air evacuated, and the rats allowed to recover. Analgesia was administered per the veterinarian. An echocardiogram was obtained at approximately 15 minutes post coronary artery occlusion. At 2 hours rats were randomized to receive chronic daily D-Arg-2′6′-Dmt-Lys-Phe-NH2 (delivered subcutaneously by an Alzet Osmotic Pump—3 mg/kg/day) or water. The Osmotic Pump delivered approximately 0.15 μl/hr for 6 weeks (model 2006; 200 μl). The Alzat pump was implanted subcutaneously between the shoulder blades while the rat was still anesthetized. After 6 weeks the rats were re-anesthetized, weighed, and a second echocardiogram was obtained under anesthesia. Cut downs were performed to isolate the carotid artery and jugular vein. Heart rate and blood pressure were measured. A Millar catheter was inserted into the left ventricle and LV systolic pressure, LV end diastolic pressure, +dP/dt, and −dP/dt were measured. A left ventriculogram was performed using IV fluoroscopic contrast in order to determine LV stroke volume and ejection fraction. Under deep anesthesia, the heart was excised, weighed, and pressure fixed at 11 mmHg with formalin. The lungs were also excised and weighed. Postmortem LV volume was measured by filling the LV cavity with fluid and measuring the total fluid. […] Quantitative histologic analysis included: total circumference, scar circumference, non-infarcted wall circumference, total LV area, total LV cavity area, LV wall thickness (at several points), non-infarcted wall thickness; myocardial infarct expansion index. […]

Data set [3] has the same test system. Nature of the data set: Hemodynamics: heart rate, blood pressure and LV pressures by Millar catheter (Example 2). The format is in vivo, rat. Particulars: 6 weeks after treatment. How it is done: (§2) Rats were anesthetized, ventilated, and a thoracotomy performed in the left 4th intercostal space. Temperature was maintained at 36° C. by placing the rats on a heating pad during the procedure. The pericardium was excised and the proximal left coronary artery isolated and permanently occluded with a suture. Coronary artery occlusion was confirmed by cyanosis and akinesis of the anterior wall of the ventricle. The chest was closed, air evacuated, and the rats allowed to recover. Analgesia was administered per the veterinarian. An echocardiogram was obtained at approximately 15 minutes post coronary artery occlusion. At 2 hours rats were randomized to receive chronic daily D-Arg-2′6′-Dmt-Lys-Phe-NH2 (delivered subcutaneously by an Alzet Osmotic Pump—3 mg/kg/day) or water. The Osmotic Pump delivered approximately 0.15 μl/hr for 6 weeks (model 2006; 200 μl). The Alzat pump was implanted subcutaneously between the shoulder blades while the rat was still anesthetized. After 6 weeks the rats were re-anesthetized, weighed, and a second echocardiogram was obtained under anesthesia. Cut downs were performed to isolate the carotid artery and jugular vein. Heart rate and blood pressure were measured. A Millar catheter was inserted into the left ventricle and LV systolic pressure, LV end diastolic pressure, +dP/dt, and −dP/dt were measured. A left ventriculogram was performed using IV fluoroscopic contrast in order to determine LV stroke volume and ejection fraction. Under deep anesthesia, the heart was excised, weighed, and pressure fixed at 11 mmHg with formalin. The lungs were also excised and weighed. Postmortem LV volume was measured by filling the LV cavity with fluid and measuring the total fluid. The hearts were sliced into four transverse sections and histologic slides were prepared and stained with hematoxylin and eosin and with picrosirius red, which stains collagen. Quantitative histologic analysis included: total circumference, scar circumference, non-infarcted wall circumference, total LV area, total LV cavity area, LV wall thickness (at several points), non-infarcted wall thickness; myocardial infarct expansion index.
(§3) All data is reported as means±SEM. Values between groups were compared by Student t-test. P is significant at p<0.05 level.

Data set [4] has the same test system. Nature of the data set: Survival during 6 weeks treatment after coronary occlusion (Example 2). The format is in vivo, rat. Particulars: 6 weeks treatment after randomization at 2 hours post occlusion. How it is done:
as §1, with “The Osmotic Pump delivered approximately 0.15 μl/hr for 6 weeks (model 2006; 200 μl). The Alzat pump was implanted subcutaneously between the shoulder blades while the rat was still anesthetized. After 6 weeks the rats were re-anesthetized, weighed, and a second echocardiogram was obtained under anesthesia. Cut downs were performed to isolate the carotid artery and jugular vein.” left out, “A left ventriculogram was performed using IV fluoroscopic contrast in order to determine LV stroke volume and ejection fraction. Under deep anesthesia, the heart was excised, weighed, and pressure fixed at 11 mmHg with formalin. The lungs were also excised and weighed.” left out

For data set [5], the system named is Rats with permanent coronary artery ligation. The data set can be described thus: Post-infarction remodeling in a rodent model of heart failure, LV chamber volume (Example 3). The format is in vivo, rat. How it is done:
Rats underwent the permanent coronary artery ligation, as described in Example 2. The rats were split into two groups and treated for six weeks with either 3 mg/kg/day of D-Arg-2′6′-Dmt-Lys-Phe-NH2 or 0.9% NaCl (saline) continuously through mini-osmotic pumps, which were implanted into each animal.
After the six week period, LV function was assessed with echocardiography. Additionally, the hearts were excised and the heart tissue analyzed for LV chamber volume using tetrazolium salt staining Heart tissue in the border zone and remote areas around the infarct were also harvested and underwent gene array analysis to determine the expression levels of genes involved in mitochondrial metabolism.

Another data set has as its system SERCA2a expression. The data set can be described thus: SERCA2a expression by qRT-PCR in heart samples post-myocardial infarction (Example 1). The settings on record: rat, 6 weeks, normalized to β-actin, relative to sham. The format is in vivo. How it is done:
Rats were anesthetized, ventilated, and a thoracotomy performed in the left 4th intercostal space. Temperature was maintained at 36° C. by placing the rats on a heating pad during the procedure. The pericardium was excised and the proximal left coronary artery isolated and permanently occluded with a suture. Coronary artery occlusion was confirmed by cyanosis and akinesis of the anterior wall of the ventricle. The chest was closed, air evacuated, and the rats allowed to recover. Analgesia was administered per the veterinarian. An echocardiogram was obtained at approximately 15 minutes post coronary artery occlusion. At 2 hours rats were randomized to receive chronic daily D-Arg-2′6′-Dmt-Lys-Phe-NH2 (delivered subcutaneously by an Alzet Osmotic Pump—3 mg/kg/day, n=7), water (n=7), sham operation (normal non-infarct hearts, n=7). The Osmotic Pump delivered approximately 0.15 μl/hr for 6 weeks (model 2006; 200 μl). The Alzat pump was implanted subcutaneously between the shoulder blades while the rat was still anesthetized.
After 6 weeks, heart samples were collected from shams, border zone cells of water-treated infarcted hearts (MI/BZ) and D-Arg-2′6′-Dmt-Lys-Phe-NH2-treated hearts (MI/BZ+AP), and remote noninfarcted area cells of water-treated hearts (MI/R) and of D-Arg-2′6′-Dmt-Lys-Phe-NH2-treated hearts (MI/R+AP). […]
(In general: Quantitative PCR measures a nucleic acid by following its amplification.)

Data set [6] has as its system Rats with permanent left coronary artery occlusion. The data set can be described thus: Quantitative histologic analysis of scar circumference, scar thickness and expansion index (Example 2). The format is in vivo, rat. The settings on record: 6 weeks after treatment. On the procedure: as §2, §3
Data set [7] has the same test system. Nature of the data set: LV fractional shortening by echocardiography, permanent coronary occlusion (Example 2). The format is in vivo, rat. How it is done: as §1
Data set [8] has the same test system. Nature of the data set: LV stroke volume and ejection fraction by LV ventriculography (Example 2). The format is in vivo, rat. Particulars: 6 weeks after treatment, 3 mg/kg/day s.c. On the procedure:
as §1, with “The Osmotic Pump delivered approximately 0.15 μl/hr for 6 weeks (model 2006; 200 μl). The Alzat pump was implanted subcutaneously between the shoulder blades while the rat was still anesthetized. After 6 weeks the rats were re-anesthetized, weighed, and a second echocardiogram was obtained under anesthesia. Cut downs were performed to isolate the carotid artery and jugular vein.” left out, “A left ventriculogram was performed using IV fluoroscopic contrast in order to determine LV stroke volume and ejection fraction. Under deep anesthesia, the heart was excised, weighed, and pressure fixed at 11 mmHg with formalin. The lungs were also excised and weighed.” left out

As for 2′,6′-Dmt-D-Arg-Phe-Lys-NH2, the plasma membrane penetration result in data set [1] was “readily penetrates the plasma membrane”.
With D-Arg-2′6′-Dmt-Lys-Phe-NH2, the Heart weight in data set [2] (3 mg/kg/day s.c.) turned out to be 0.724 ± 0.011 g. In data set [2] (heart pressure fixed at 11 mmHg), the “LV volume (post-mortem)” value is 0.519 ± 0.019 mL. Further, in [2] (post-mortem LV volume standardized by heart weight), the LV volume/heart weight was 0.72±0.02. The “minimum left ventricular pressure” value in data set [3] is 0.64±0.55 mmHg. For the same substance, in data set [3] (3 mg/kg/day s.c.), the “Diastolic BP” value is reported as 85 ± 2 mmHg, the “Heart Rate” value came out at 209 ± 5, the “Mean BP” value is recorded as 94 ± 3 mmHg and the “Systolic BP” value amounted to 114 ± 4 mmHg. In addition, in [3] (left ventricle), the “+dp/dt” value was found to be 5668, the “Ped (end diastolic left ventricular pressure)” value was found to be 5.63, the “Pes (end systolic left ventricular pressure)” value was determined as 105 and the “Pmin (minimum left ventricular pressure)” value is recorded as 0.64 +. For the same substance, in data set [3] (left ventricle), the “Tau Glantz” value is 24.6, the “Tau Weiss” value came to 14.6 and the “−dp/dt” value came to 3639. For the same substance, the deaths during treatment result in data set [4] is listed as “no rats died”. The LV volume/heart weight entry in [5] (3 mg/kg/day for six weeks by mini-osmotic pump versus 0.9% NaCl, FIG. 6) is on record as “decrease in LV volume/heart weight”. Besides, the LV dilation entry in [5] (3 mg/kg/day for six weeks by mini-osmotic pump, post-infarction model of heart failure) is “reduced LV dilation”. In addition, the “SERCA2a expression, border zone cells (MI/BZ+AP)” value in the data set with SERCA2a expression (3 mg/kg/day s.c. osmotic pump from 2 hours post occlusion) is “restored SERCA2a expression to near normal levels”. The “SERCA2a expression, nonischemic remote area (MI/R)” value with SERCA2a expression (3 mg/kg/day s.c. osmotic pump) is recorded as “no significant differences”. Further, in data set [6], the “Scar circumference (%), expressed as percentage of total LV circumference” value is 39.7±2.2%; the Scar thickness is 0.504 ± 0.039 mm; the Septum thickness was found to be 1.45 ± 0.03 mm. In [6] (histological analysis), this substance showed an LV non-scar circumference of 15.4±0.4 mm and a scar circumference of 9.9±0.6 mm. In data set [6] ([LV cavity area/Total LV area×Septum thickness/Scar thickness]), this substance showed an Expansion index of 1.67 ± 0.12. Besides, the “left ventricular fractional shortening (LVFS)” value in [7] (6 weeks after treatment, 3 mg/kg/day s.c. osmotic pump from 2 hours post occlusion) is given as 28.8±1.7%. Moreover, the “left ventricular fractional shortening (LVFS)” value in data set [7] (15 minutes after coronary occlusion (before treatment)) is 45±1.8. The “left ventricular fractional shortening (LVFS)” value in data set [7] (baseline before coronary occlusion (before treatment)) stood at 44.5±1.1%. In data set [8], this substance gave an LV ejection fraction of 55.3±1.4% and an LV stroke volume of 0.257 ± 0.008 mL.
